# Patent US11959929B2, “Method of quantifying lysergic acid diethylamide (LSD) and 2,3-dihydro-3-hydroxy-2-oxo lysergide (O-H-LSD) in human plasma” (Universitatsspital Basel, priority 2020, dated 2024)
# Several values for one entry are separate records, joined by “and”; a condition that tells them apart may be missing. Equal values may be shown once.
# What was measured:
# [1] = Freeze/thaw stability tests in human plasma (three cycles, about −20° C.); format: physicochemical; details: for Change in concentration [%]: 3 F/T cycles vs Baseline; for Accuracy: single QC replicate
# From the text: (§1) Each analyte had to be stable in human plasma for at least three freeze-thaw cycles (for repeated sample preparations) and at ambient temperature for at least eight hours (maximal duration of sample preparation). Measured samples should be stable for a second injection when the first analytical run was not valid. The analytes had to be stable in the matrix at the intended storage temperatures and study duration.
# (§2) An analyte was considered stable at one of the above tests when no increase or decrease of the analyte concentration of more than 15% for the mean of at least three analyzed QC samples at low, medium and at high concentration was observed.
# Seven of each LLOQ, QCLOW, QCMID, QCHIGH, and ULOQ sample in human plasma were stored at about −20° C. for at least 24 hours and thawed unassisted at ambient temperature. When completely thawed, the samples were refrozen for at least 12 hours under the same conditions. The freeze-thaw cycle was repeated two more times. After the third cycle the samples were worked up and analyzed. The concentrations in the frozen and thawed samples were compared with freshly processed QC samples. Concentrations were calculated based on two freshly prepared CALs measured at the beginning and the other at the end of the validation run.
# [2] = Bench-top (short-term) stability test in human plasma, 8 hours at ambient temperature; format: physicochemical; details: for Change in concentration [%]: 8 h at RT vs Baseline; for Accuracy: single QC replicate
# From the text: as §1, §2
# Seven of each LLOQ, QCLOW, QCMID, QCHIGH, and ULOQ samples in human plasma were thawed at ambient temperature and kept at this temperature for 8 hours. Afterwards, the samples were worked up and analyzed. The values of the concentrations in the “short-term” samples were compared with freshly processed QC samples. Concentrations were calculated based on two freshly prepared CAL sets measured at the beginning and the end of the validation run.
# [3] = Reinjection reproducibility of worked-up plasma samples (overnight at 10° C. in autosampler; 1 week at −20° C.); format: physicochemical, human; details: for Change in concentration: 1 night at 10° C. in the autosampler vs Baseline; for Change in concentration [%]: 8 days at −20° C. vs Baseline; for Accuracy: single QC replicate
# From the text: as §1, §2
# Worked-up and measured Cal and QC samples (prepared in human plasma) of a valid run were repeatedly analyzed. Reinjection was performed after overnight storage at 10° C. (autosampler) and after 1-week storage at −20° C. The run was checked according to the acceptance criteria for validation runs. The calculated mean values for QC samples were compared between the original and reinjected run.
# [4] = QCHIGH: 1000 pg/ml, 3 F/T cycles
# [5] = ULOQ: 10000 pg/ml, 3 F/T cycles
# [6] = LLOQ: 10 pg/ml, reinjection after 8 days at −20° C.
# [7] = QCHIGH: 1000 pg/ml, reinjection after 8 days at −20° C.
# [8] = QCLOW: 25 pg/ml, reinjection after 8 days at −20° C.
# [9] = QCMID: 100 pg/ml, reinjection after 8 days at −20° C.
# [10] = ULOQ: 10000 pg/ml, reinjection after 8 days at −20° C.
compound,measurement,setting,value
"CCN(CC)C(=O)[C@@H]1C=C2c3cccc4[nH]cc(c34)C[C@H]2N(C)C1 [LSD, Lysergic acid diethylamide]","Accuracy, Intra-assay Mean","[1]; LLOQ: 10 pg/ml, 3 F/T cycles",83.7%
same,Change in concentration [%],[1]; LLOQ: 10 pg/ml,−8.83%
same,Accuracy,"[1]; LLOQ: 10 pg/ml, 3 F/T cycles",81.9% and 75.0* % and 81.7% and 84.7% and 79.8* % and 81.8% and 88.5%
same,"Accuracy, Intra-assay Mean","[1]; LLOQ: 10 pg/ml, Baseline",91.8%
same,Accuracy,"[1]; LLOQ: 10 pg/ml, Baseline",96.6% and 95.7% and 83.2%
same,"Accuracy, Intra-assay Mean",[1]; [4],96.5%
same,Change in concentration [%],[1]; QCHIGH: 1000 pg/ml,0.647%
same,Accuracy,[1]; [4],96.4% and 96.2% (2×) and 96.9% and 96.7% and 94.6% and 98.3%
same,"Accuracy, Intra-assay Mean","[1]; QCHIGH: 1000 pg/ml, Baseline",95.9%
same,Accuracy,"[1]; QCHIGH: 1000 pg/ml, Baseline",96.9% and 96.4% and 94.3%
same,"Accuracy, Intra-assay Mean","[1]; QCLOW: 25 pg/ml, 3 F/T cycles",96.7%
same,Change in concentration [%],[1]; QCLOW: 25 pg/ml,4.44%
same,Accuracy,"[1]; QCLOW: 25 pg/ml, 3 F/T cycles",95.2% and 102% and 101% and 91.5% and 98.8% and 93.6% and 94.9%
same,"Accuracy, Intra-assay Mean","[1]; QCLOW: 25 pg/ml, Baseline",92.6%
same,Accuracy,"[1]; QCLOW: 25 pg/ml, Baseline",94% and 93.4% and 90.5%
same,"Accuracy, Intra-assay Mean","[1]; QCMID: 100 pg/ml, 3 F/T cycles",98.5%
same,Change in concentration [%],[1]; QCMID: 100 pg/ml,1.03%
same,Accuracy,"[1]; QCMID: 100 pg/ml, 3 F/T cycles",99.2% and 97.9% and 99.5% and 99.6% and 94.9% and 98% and 100%
same,"Accuracy, Intra-assay Mean","[1]; QCMID: 100 pg/ml, Baseline",97.5%
same,Accuracy,"[1]; QCMID: 100 pg/ml, Baseline",101% and 94.3% and 97.4%
same,"Accuracy, Intra-assay Mean",[1]; [5],95.7%
same,Change in concentration [%],[1]; ULOQ: 10000 pg/ml,−0.9%
same,Accuracy,[1]; [5],97.8% and 94.3% and 94% and 96.4% and 99.2% and 93% and 95.2%
same,"Accuracy, Intra-assay Mean","[1]; ULOQ: 10000 pg/ml, Baseline",96.6%
same,Accuracy,"[1]; ULOQ: 10000 pg/ml, Baseline",94.7% and 94.9% and 100%
same,Change in plasma concentration following three freeze/thaw cycles,"[1]; human plasma QC samples, −20° C., three freeze/thaw cycles, vs freshly processed QC",≤ 8.83%
same,"Accuracy, Intra-assay Mean","[2]; LLOQ: 10 pg/ml, 8 h at RT",88.3%
same,Change in concentration [%],[2]; LLOQ: 10 pg/ml,3.81%
same,Accuracy,"[2]; LLOQ: 10 pg/ml, 8 h at RT",91.6% and 85.6% and 74.7* % and 83.10% and 92% and 86.1% and 91.7%
same,"Accuracy, Intra-assay Mean","[2]; LLOQ: 10 pg/ml, Baseline",91.8%
same,Accuracy,"[2]; LLOQ: 10 pg/ml, Baseline",96.6% and 95.7% and 83.2%
same,"Accuracy, Intra-assay Mean","[2]; QCHIGH: 1000 pg/ml, 8 h at RT",97.8%
same,Change in concentration [%],[2]; QCHIGH: 1000 pg/ml,1.99%
same,Accuracy,"[2]; QCHIGH: 1000 pg/ml, 8 h at RT",98.2% and 98.3% and 97.2% and 96.8% and 96.2% and 97.7% and 100%
same,"Accuracy, Intra-assay Mean","[2]; QCHIGH: 1000 pg/ml, Baseline",95.9%
same,Accuracy,"[2]; QCHIGH: 1000 pg/ml, Baseline",96.9% and 96.4% and 94.3%
same,"Accuracy, Intra-assay Mean","[2]; QCLOW: 25 pg/ml, 8 h at RT",92.7%
same,Change in concentration [%],[2]; QCLOW: 25 pg/ml,0.0885%
same,Accuracy,"[2]; QCLOW: 25 pg/ml, 8 h at RT",96% and 92.9% and 94.5% and 87.6% and 94.4% and 93.3% and 90%
same,"Accuracy, Intra-assay Mean","[2]; QCLOW: 25 pg/ml, Baseline",92.6%
same,Accuracy,"[2]; QCLOW: 25 pg/ml, Baseline",94% and 93.4% and 90.5%
same,"Accuracy, Intra-assay Mean","[2]; QCMID: 100 pg/ml, 8 h at RT",96%
same,Change in concentration [%],[2]; QCMID: 100 pg/ml,−1.51%
same,Accuracy,"[2]; QCMID: 100 pg/ml, 8 h at RT",95.9% (2×) and 95.8% and 94.2% and 91.1% and 99.2% and 99.7%
same,"Accuracy, Intra-assay Mean","[2]; QCMID: 100 pg/ml, Baseline",97.5%
same,Accuracy,"[2]; QCMID: 100 pg/ml, Baseline",101% and 94.3% and 97.4%
same,"Accuracy, Intra-assay Mean","[2]; ULOQ: 10000 pg/ml, 8 h at RT",94.9%
same,Change in concentration [%],[2]; ULOQ: 10000 pg/ml,−1.74%
same,Accuracy,"[2]; ULOQ: 10000 pg/ml, 8 h at RT",94.7% and 93.4% and 94.6% and 96.9% and 95.4% and 95% and 94.3%
same,"Accuracy, Intra-assay Mean","[2]; ULOQ: 10000 pg/ml, Baseline",96.6%
same,Accuracy,"[2]; ULOQ: 10000 pg/ml, Baseline",94.7% and 94.9% and 100%
same,Change in plasma concentration after 8 hours storage at room temperature,"[2]; human plasma QC samples, 8 hours at room temperature, vs freshly processed QC",≤ 3.81%
same,Change in concentration,[3]; LLOQ: 10 pg/ml,1.09%
same,Change in concentration,[3]; QCHIGH: 1000 pg/ml,−0.451%
same,Change in concentration,[3]; QCLOW: 25 pg/ml,−0.0195%
same,Change in concentration,[3]; QCMID: 100 pg/ml,2.3%
same,Change in concentration,[3]; ULOQ: 10000 pg/ml,0.383%
same,Change in concentration [%],[3]; LLOQ: 10 pg/ml,−1.26%
same,"Accuracy, Intra-assay Mean","[3]; LLOQ: 10 pg/ml, Baseline",96.6%
same,Accuracy,"[3]; LLOQ: 10 pg/ml, Baseline",92.5% and 95% and 76.3* % and 91.3% and 98% and 109% and 93.7%
same,"Accuracy, Intra-assay Mean",[3]; [6],95.4%
same,Accuracy,[3]; [6],104% and 97.5% and 86% and 95.3% and 100% and 94.7% and 90.3%
same,Change in concentration [%],[3]; QCHIGH: 1000 pg/ml,−0.333%
same,"Accuracy, Intra-assay Mean","[3]; QCHIGH: 1000 pg/ml, Baseline",100%
same,Accuracy,"[3]; QCHIGH: 1000 pg/ml, Baseline",96.5% and 99.5% and 97.7% and 101% (3×) and 103%
same,"Accuracy, Intra-assay Mean",[3]; [7],99.7%
same,Accuracy,[3]; [7],101% (2×) and 98.8% and 98.9% and 99.9% and 99.1% and 99.6%
same,Change in concentration [%],[3]; QCLOW: 25 pg/ml,−0.948%
same,"Accuracy, Intra-assay Mean","[3]; QCLOW: 25 pg/ml, Baseline",101%
same,Accuracy,"[3]; QCLOW: 25 pg/ml, Baseline",101% (2×) and 104% and 97.9% and 102% and 103% and 99.5%
same,"Accuracy, Intra-assay Mean",[3]; [8],100%
same,Accuracy,[3]; [8],95.5% and 102% and 107% and 96.4% and 106% and 92% and 103%
same,Change in concentration [%],[3]; QCMID: 100 pg/ml,1.02%
same,"Accuracy, Intra-assay Mean","[3]; QCMID: 100 pg/ml, Baseline",101%
same,Accuracy,"[3]; QCMID: 100 pg/ml, Baseline",101% (4×) and 102% and 96.6% and 107%
same,"Accuracy, Intra-assay Mean",[3]; [9],102%
same,Accuracy,[3]; [9],101% and 103% (2×) and 102% (2×) and 99.9% and 105%
same,Change in concentration [%],[3]; ULOQ: 10000 pg/ml,−1.85%
same,"Accuracy, Intra-assay Mean","[3]; ULOQ: 10000 pg/ml, Baseline",97.2%
same,Accuracy,"[3]; ULOQ: 10000 pg/ml, Baseline",97.9% and 97.3% and 98.1% and 96.5% and 97.1% and 98.7% and 95%
same,"Accuracy, Intra-assay Mean",[3]; [10],95.4%
same,Accuracy,[3]; [10],97.4% and 96.6% and 95.2% and 92.9% and 95.1% and 96.4% and 94.2%
same,Deviations of the means of the QCs of the two runs (reinjection) after 8 days at −20° C.,"[3]; worked-up human plasma samples, 8 days at −20° C.",−1.85% to +1.02
same,Deviations of the means of the QCs of the two runs (reinjection) after overnight storage at 10° C.,"[3]; worked-up human plasma samples, overnight at 10° C. in the autosampler",−0.451% to +2.3
